# According to patent US9732075B2, “Benzimidazole-proline derivatives” (IDORSIA PHARMACEUTICALS LTD, priority 2012, dated 2017):
# Tests used:
# human orexin-2 receptor = human orexin-2 receptor (Homo sapiens (Human), UniProt O43614); experiment: In vitro assay: intracellular calcium measurements (FLIPR), antagonistic activity; assay type: cell-based; conditions: CHO cells expressing human orexin-2 receptor, orexin-A agonist, geometric mean, read-out: IC50 Ox2
# Description: (§1) In Vitro Assay: Intracellular Calcium Measurements:
# (§2) Chinese hamster ovary (CHO) cells expressing the human orexin-1 receptor and the human orexin-2 receptor, respectively, are grown in culture medium (Ham F-12 with L-Glutamine) containing 300 μg/ml G418, 100 U/ml penicillin, 100 μg/ml streptomycin and 10% heat inactivated fetal calf serum (FCS). The cells are seeded at 20,000 cells/well into 384-well black clear bottom sterile plates (Greiner). The seeded plates are incubated overnight at 37° C. in 5% CO2.
# (§3) Human orexin-A as an agonist is prepared as 1 mM stock solution in MeOH: water (1:1), diluted in HBSS containing 0.1% bovine serum albumin (BSA), NaHCO3: 0.375 g/l and 20 mM HEPES for use in the assay at a final concentration of 3 nM.
# (§4) Antagonists are prepared as 10 mM stock solution in DMSO, then diluted in 384-well plates using DMSO followed by a transfer of the dilutions into in HBSS containing 0.1% bovine serum albumin (BSA), NaHCO3: 0.375 g/l and 20 mM HEPES. On the day of the assay, 50 μl of staining buffer (HBSS containing 1% FCS, 20 mM HEPES, NaHCO3: 0.375 g/l, 5 mM probenecid (Sigma) and […] of the fluorescent calcium indicator fluo-4 AM (1 mM stock solution in DMSO, containing 10% pluronic) is added to each well. The 384-well cell-plates are incubated for 50 min at 37° C. in 5% CO2 followed by equilibration at RT for 30 min before measurement.
# (§5) Within the Fluorescent Imaging Plate Reader (FLIPR Tetra, Molecular Devices), antagonists are added to the plate in a volume of 10 μl/well, incubated for 120 min and finally 10 μl/well of agonist is added. Fluorescence is measured for each well at 1 second intervals, and the height of each fluorescence peak is compared to the height of the fluorescence peak induced by an approximate EC70 (for example 5 nM) of orexin-A with vehicle in place of antagonist. The IC50 value (the concentration of compound needed to inhibit 50% of the agonistic response) is determined and may be normalized using the obtained IC50 value of a on-plate reference compound. Optimized conditions are achieved by adjustment of pipetting speed and cell splitting regime. The calculated IC50 values may fluctuate depending on the daily cellular assay performance. Fluctuations of this kind are known to those skilled in the art. Average IC50 values from several measurements are given as geometric mean values.
# human orexin-1 receptor = human orexin-1 receptor (Homo sapiens (Human), UniProt O43613); experiment: as above; assay type: cell-based; conditions: CHO cells expressing human orexin-1 receptor, orexin-A agonist, geometric mean, read-out: IC50 Ox1
# Chain of human orexin-1 receptor (O43613 whole entry): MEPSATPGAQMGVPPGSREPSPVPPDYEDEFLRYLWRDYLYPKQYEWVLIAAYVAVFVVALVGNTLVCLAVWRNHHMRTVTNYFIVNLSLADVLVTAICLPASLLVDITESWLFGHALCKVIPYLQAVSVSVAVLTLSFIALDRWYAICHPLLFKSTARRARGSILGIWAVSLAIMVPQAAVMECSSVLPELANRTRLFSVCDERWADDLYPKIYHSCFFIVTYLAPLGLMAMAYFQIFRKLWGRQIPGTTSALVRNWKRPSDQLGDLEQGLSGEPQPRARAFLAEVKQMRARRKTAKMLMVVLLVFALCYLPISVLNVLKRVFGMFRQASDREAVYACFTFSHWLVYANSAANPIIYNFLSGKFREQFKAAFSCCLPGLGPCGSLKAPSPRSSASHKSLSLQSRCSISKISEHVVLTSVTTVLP
# Description: as §1, §2, §3, §4, §5
# Chain of human orexin-2 receptor (O43614 whole entry): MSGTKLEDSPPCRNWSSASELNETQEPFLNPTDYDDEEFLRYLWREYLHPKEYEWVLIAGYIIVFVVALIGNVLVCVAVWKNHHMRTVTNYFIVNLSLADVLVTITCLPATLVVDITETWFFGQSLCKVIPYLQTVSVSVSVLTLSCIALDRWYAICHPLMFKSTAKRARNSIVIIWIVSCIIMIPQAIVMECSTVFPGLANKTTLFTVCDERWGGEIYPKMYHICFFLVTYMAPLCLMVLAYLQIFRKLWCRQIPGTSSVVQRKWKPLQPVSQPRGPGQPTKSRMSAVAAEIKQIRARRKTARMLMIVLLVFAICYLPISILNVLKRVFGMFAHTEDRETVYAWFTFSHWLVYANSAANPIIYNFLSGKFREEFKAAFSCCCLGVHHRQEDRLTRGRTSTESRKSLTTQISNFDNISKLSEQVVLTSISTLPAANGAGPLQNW
SMILES,IC50 (human orexin-2 receptor) [nM],IC50 (human orexin-1 receptor) [nM]
C=C1CN(C(=O)c2nc(N(C)C)sc2-c2ccc(C)c(C)c2)C(C)(c2nc3cc(OC)ccc3[nH]2)C1 (stereo not shown) [Ex. 6.144],56,15
Cc1nc(C(=O)N2CCCC2c2nc3cc(Cl)c(Cl)cc3[nH]2)c(-c2cccc(Cl)c2)s1 (stereo not shown) [Ex. 1.92],69,23
Cc1ccc(-c2ccccc2F)c(C(=O)N2CCC[C@@]2(C)c2nc3cc(C(F)(F)F)ccc3[nH]2)c1 [Ex. 5.194],98,13
Cc1cccc(-c2nc(C(=O)N3CCC[C@@]3(C)c3nc4cc(Cl)c(C(F)(F)F)cc4[nH]3)c(-c3ccc(F)cc3)s2)c1 [Ex. 5.287],1160,53
Cc1c(Cl)ccc2c1nc([C@]1(C)CCCN1C(=O)c1ccccc1-n1nccn1)n2C [Ex. 7.19],8,5
Cc1ccc(-c2ccc(C)cc2C(=O)N2CCC[C@@]2(C)c2nc3cc(C)c(C)cc3n2CC2CC2)cc1 [Ex. 7.39],61,43
C=C1C[C@@H](c2nc3ccc(Cl)c(C)c3[nH]2)N(C(=O)c2nc(C)sc2-c2ccc(F)c(Br)c2)C1 [Ex. 6.125],0.8,2
Cc1ccc(-n2nccn2)c(C(=O)N2CCC[C@@]2(C)c2nc3c(Br)cccc3[nH]2)c1 [Ex. 5.18],84,23
C[C@@]1(c2nc3cc(Cl)c(C(F)(F)F)cc3[nH]2)CCCN1C(=O)c1nc(-c2ccccc2F)sc1-c1ccc(F)cc1 [Ex. 5.289],532,38
COc1ccc(-c2ccc(OC(F)(F)F)cc2)c(C(=O)N2CCC[C@@]2(C)c2nc3c(C)c(Cl)ccc3[nH]2)c1F [Ex. 5.306],69,33
Cc1ccc(-c2ncccn2)c(C(=O)N2CCC[C@@]2(C)c2nc3cc(OC(F)(F)F)ccc3[nH]2)c1 [Ex. 5.281],380,34
COc1ccc(-c2sc(C)nc2C(=O)N2CC[C@H](C)[C@H]2c2nc3cc(C(F)(F)F)ccc3[nH]2)cc1 [Ex. 4.141],2760,5
CO[C@@H]1C[C@@H](c2nc3ccc(Cl)c(C)c3[nH]2)N(C(=O)c2nc(C)sc2-c2cccc(C)c2)C1 [Ex. 3.32],5,0.9
C=C1C[C@@H](c2nc3cc(C(C)(C)C)ccc3[nH]2)N(C(=O)c2ccccc2-n2cccn2)C1 [Ex. 6.172],67,1260
CSc1cccc2nc([C@@H]3CCCN3C(=O)c3cncnc3-c3ccc(C)cc3)[nH]c12 [Ex. 1.78],408,102
Cc1nc(C(=O)N2CCCC2c2nc3cc(F)c(Cl)cc3[nH]2)c(-c2cccc(Cl)c2)s1 (stereo not shown) [Ex. 1.98],,105
C[C@@]1(c2nc3cc(F)c(Br)cc3[nH]2)CCCN1C(=O)c1cc(F)ccc1-n1nccn1 [Ex. 5.126],,117
Cc1ccc(-c2sc(C)nc2C(=O)N2CC[C@H](C)[C@H]2c2nc3c(C(F)(F)F)cccc3[nH]2)cc1 [Ex. 4.153],80,
Cc1ccc(-c2ncccn2)c(C(=O)N2CCC[C@@]2(C)c2nc3cc(C(F)(F)F)c(Cl)cc3[nH]2)c1 [Ex. 5.279],8,
Cc1cc(C(=O)N2CCC[C@@]2(C)c2nc3cc(C(F)(F)F)c(Cl)cc3[nH]2)c(-n2nccn2)cc1C [Ex. 5.137],6,
Cc1nc(C(=O)N2CC[C@H](C)[C@H]2c2nc3cc(C(F)(F)F)ccc3[nH]2)c(-c2ccc(C)c(C)c2)s1 [Ex. 4.145],635,
CO[C@H]1CN(C(=O)c2cc(C)c(C)cc2-n2nccn2)C(C)(c2nc3c(C)c(Cl)ccc3[nH]2)C1 (stereo partly shown) [Ex. 3.48],4,
Cc1nc(C(=O)N2CCC[C@@]2(C)c2nc3c(C)c(C)c(Br)cc3[nH]2)c(-c2cc(F)cc(F)c2)s1 [Ex. 5.274],8,
Cc1ccc(-c2ncccn2)c(C(=O)N2CCC[C@@]2(C)c2nc3ccc(F)c(F)c3[nH]2)c1 [Ex. 5.283],,87
Cc1ccc(-n2nccn2)c(C(=O)N2CC[C@H](C)[C@H]2c2nc3c(C)c(Cl)ccc3[nH]2)c1F [Ex. 4.68],,2
